Values after ≈ are worked out from the molar mass of the structure shown. Where two headings read alike, the source gives them in different places.
Experiments:
physchem = experiment: physchem
Text: The term “fragrance composition” or “composition,” as used herein, represents a composition containing one or more fragrance ingredients described here and formulated with a physiologically acceptable diluent or solvent, used interchangeably here. In a fragrance composition, or composition that has a fragrance, such as a perfume, 20%-40% of the observable liquid may be comprised of a diluent, i.e., the delivery system for scents of the fragrance ingredients. The “log P” value, as used here, indicates whether a substance or fragrance ingredient will be absorbed by humans, animals, plants, or living tissue; diffused or disseminated by water.
(§1) Also included is the molecular weight of each of the fragrance ingredients. Not determinable (ND).

[1] = Water solubility at 25° C. of fragrance ingredients
Text: as §1

[2] = Vapor pressure of fragrance ingredients
Text: as §1

[3] = Flash point of fragrance ingredients; type: physicochemical
Text: as §1

[4] = Clarity of fragrance ingredient in bioderived 1,3-BG by visual observation
[5] = 10% ingredient in bioderived 1,3-BG, clear, slightly haze, cloudy, particles, or separation

SMILES: C=CCOC(=O)COCCC(C)C [Allyl Amyl Glycolate]
- logP (physchem): 2.7
- Water Solubility ([1]; 25° C.): 510.700 µg/mL
- Vapor Pressure [2]: 0.04 mm hg
- Flash Point [3]: 93 °C

SMILES: O=C1CCCCCCCCCCCC(=O)OCCO1 [Ethylene Brassylate]
- logP (physchem): 2.77
- solubility ([1]; water, 25 °C): 1.72 µg/mL (≈ 6.36 µM)
- Vapor Pressure [2]: 0 mm hg
- Flash Point [3]: 110 °C
- Clarity 10% [4, 5]: Cloudy

SMILES: CC(=O)OCCC(C)C [Isoamyl Acetate]
- Water Solubility ([1]; 25° C.): 2000.000 µg/mL
- Vapor Pressure [2]: 5.6 mm hg
- Flash Point [3]: 38 °C
- Clarity 10% [4, 5]: Clear

SMILES: N#C/C=C/c1ccccc1 [Cinnamalva]
- logP (physchem): 1.84
- Water Solubility [1]: 1067.000 µg/mL
- Vapor Pressure [2]: 0.023 mm hg
- Flash Point [3]: 94 °C
- Clarity 10% [4, 5]: Clear

SMILES: CC1(O)CCC2C(=CCCC2(C)C)C1 (stereo not drawn) [Ambrinol]
- logP (physchem): 3.785
- Water Solubility [1]: 134.300 µg/mL
- Vapor Pressure [2]: 0.0005 mm hg
- Flash Point [3]: 100 °C
- Clarity 10% [4, 5]: Clear

SMILES: CC(C)CCCC(C)(C)O [Dimetol]
- logP (physchem): 2.976
- Water Solubility ([1]; 25° C.): 777.000 µg/mL
- Vapor Pressure [2]: 0.33 mm hg
- Flash Point [3]: 63 °C
- Clarity 10% [4, 5]: Clear

SMILES: CC(=O)OC(C)(C)C1CC=C(C)CC1 (stereo not drawn) [Terpinyl Acetate]
- logP (physchem): 3.59
- Water Solubility ([1]; 25° C.): 18.970 µg/mL
- Vapor Pressure [2]: 0.058 mm hg
- Flash Point [3]: 100 °C
- Clarity 1% [4]: Clear

SMILES: CC(=O)C1(C)CC2=C(CCCC2(C)C)CC1C (stereo not drawn) [Iso E Super]
- logP (physchem): 4.71
- Vapor Pressure [2]: 0.001 mm hg
- Flash Point [3]: 111 °C
- Clarity 10% [4, 5]: Cloudy

SMILES: CC12CCC(CC1)C(C)(C)O2 [Eucalyptol]
- logP (physchem): 2.74
- solubility ([1]; water, 25 °C): 3500 µg/mL (≈ 22700 µM)
- Vapor Pressure [2]: 1.9 mm hg
- Flash Point [3]: 50 °C
- Clarity 10% [4, 5]: Clear

SMILES: CC1(C)CCC[C@]2(C)[C@H]3CCO[C@]3(C)CC[C@@H]12 [Ambrox Super (Ambroxan), Ambroxan]
- Vapor Pressure [2]: 0.009 mm hg
- Flash Point [3]: 100 °C
- Clarity 10% [4, 5]: Particles

SMILES: CC1COCc2cc3c(cc21)C(C)(C)C(C)C3(C)C (stereo not drawn) [Galaxolide]
- logP (physchem): 5.92
- solubility ([1]; 25 °C, water): 0.194 µg/mL (≈ 0.751 µM)
- Vapor Pressure [2]: 0.000414 mm hg
- Flash Point [3]: 104 °C
- Clarity 10% [4, 5]: Separation

SMILES: CCOc1cc(C=O)ccc1O [Ethyl Vanillin]
- Water Solubility [1]: 2820.000 µg/mL
- Vapor Pressure [2]: 0.001 mm hg
- Flash Point [3]: 127 °C
- Clarity 10% [4, 5]: Clear

SMILES: CC(=O)C(C)=CC1C(C)=CCCC1(C)C (stereo not drawn) [Methyl Ionone Gamma]
- logP (physchem): 4.315
- Water Solubility [1]: 2.980 µg/mL
- Vapor Pressure [2]: 0.006 mm hg
- Flash Point [3]: 110 °C
- Clarity 10% [4, 5]: Cloudy

SMILES: CC/C(=C\CC1CC=C(C)C1(C)C)CO (stereo not drawn) [Bacdanol]
- logP (physchem): 4.3
- Water Solubility ([1]; 25° C.): 17.000 µg/mL
- Vapor Pressure [2]: 0.00028 mm hg
- Flash Point [3]: 199 °C
- Clarity 10% [4, 5]: Clear

SMILES: CCCCCCCCCC(C)C=O (stereo not drawn) [Aldehyde C-12 MNA]
- logP (physchem): 4.834
- Water Solubility ([1]; 25° C.): 5.372 µg/mL
- Vapor Pressure [2]: 4.834 mm hg
- Flash Point [3]: 69 °C
- Clarity 10% [4, 5]: Clear

SMILES: C=CC(C)(O)CCC=C(C)C (stereo not drawn) [Linalool]
- Vapor Pressure [2]: 0.016 mm hg
- Flash Point [3]: 75 °C
- Clarity 10% [4, 5]: Clear

SMILES: c1ccc(COCc2ccccc2)cc1 [Dibenzyl Ether]
- logP (physchem): 3.31
- solubility ([1]; water, 25 °C): 40 µg/mL (≈ 202 µM)
- Vapor Pressure [2]: 0.00103 mm hg
- Flash Point [3]: 93 °C
- Clarity 10% [4, 5]: Cloudy

SMILES: CC1C(C)(C)C2=C(C(=O)CCC2)C1(C)C (stereo not drawn) [Cashmeran]
- logP (physchem): 4.5
- Water Solubility ([1]; 25° C.): 5.937 µg/mL
- Vapor Pressure [2]: 0.003 mm hg
- Flash Point [3]: 94 °C
- Clarity 10% [4, 5]: Clear

SMILES: CC(=O)OCc1ccccc1 [Benzyl Acetate]
- Vapor Pressure [2]: 0.177 mm hg
- Flash Point [3]: 91 °C
- Clarity 10% [4, 5]: Clear

SMILES: COc1ccc(C=O)cc1 [Anisic Aldehyde]
- Water Solubility [1]: 4290.000 µg/mL
- Vapor Pressure [2]: 1 mm hg
- Flash Point [3]: 116 °C
- Clarity 10% [4, 5]: Clear

SMILES: CC=Cc1ccc(OC)cc1 [Anethole]
- Vapor Pressure [2]: 0.069 mm hg
- Flash Point [3]: 110 °C
- Clarity 10% [4, 5]: Cloudy

SMILES: COc1ccc(COC(C)=O)cc1 [Anisyl Acetate]
- logP (physchem): 1.887
- Water Solubility ([1]; 25° C.): 782.900 µg/mL
- Vapor Pressure [2]: 0.021 mm hg
- Flash Point [3]: 135 °C
- Clarity 1% [4]: Clear
- Clarity 10% [4]: Clear

SMILES: CC1CC=CCCCCCCCCCC(=O)C1 (stereo not drawn) [Muscenone]
- logP (physchem): 4.88
- Water Solubility ([1]; 25° C.): 0.346 µg/mL
- Vapor Pressure [2]: 0.1 mm hg
- Flash Point [3]: 100 °C
- Clarity 10% [4, 5]: Cloudy

SMILES: CC(C)=CCCC(C)=CC=O [Citral]
- Vapor Pressure [2]: 0.2 mm hg
- Flash Point [3]: 98 °C
- Clarity 10% [4, 5]: Clear

SMILES: CC/C=C\CCOC(=O)c1ccccc1O [Cis-3-Hexenyl Salicylate]
- logP (physchem): 4.4
- solubility ([1]; water, 25 °C): 9.52 µg/mL (≈ 43.2 µM)
- Vapor Pressure [2]: 0.000246 mm hg
- Flash Point [3]: 110 °C
- Clarity 10% [4, 5]: Cloudy

SMILES: CCCCCCCCCC=O [Aldehyde C-10]
- logP (physchem): 3.97
- Water Solubility ([1]; 25° C.): 43.520 µg/mL
- Vapor Pressure [2]: 0.207 mm hg
- Flash Point [3]: 82 °C

SMILES: C=CC(C)CCCC(C)(C)O (stereo not drawn) [Dihydro Myrcenol]
- logP (physchem): 2.99
- Water Solubility ([1]; 25° C.): 252.200 µg/mL
- Vapor Pressure [2]: 0.166 mm hg
- Flash Point [3]: 76 °C
- Clarity 10% [4, 5]: Clear

SMILES: CCC(CC)C(=O)N(C)c1cccc(C)c1 [Paradisamide]
- logP (physchem): 3.295
- Water Solubility ([1]; 25° C.): 46.430 µg/mL
- Vapor Pressure [2]: 0.0038 mm hg
- Flash Point [3]: 138 °C
- Clarity 10% [4, 5]: Clear

SMILES: C=CC(C)(CCC=C(C)C)OC(C)=O (stereo not drawn) [Linalyl Acetate]
- logP (physchem): 3.93
- solubility ([1]; 25 °C, water): 20.1 µg/mL
- Vapor Pressure [2]: 0.116 mm hg
- Flash Point [3]: 94 °C
- Clarity 1% [4]: Clear

SMILES: CCOC(=O)CC1(C)OCCO1 [Fructone]
- logP (physchem): 0.982
- Water Solubility ([1]; 25° C.): 100.000 µg/mL
- Vapor Pressure [2]: 0.219 mm hg
- Flash Point [3]: 93 °C
- Clarity 10% [4, 5]: Clear

SMILES: C=C(C)[C@@H]1CCC2=CC(=O)C[C@@H](C)[C@]2(C)C1 [Nootkatone]
- logP (physchem): 3.77
- solubility ([1]; 25 °C, water): 2.38 µg/mL (≈ 10.9 µM)
- Vapor Pressure [2]: 0.000358 mm hg
- Flash Point [3]: 110 °C
- Clarity 10% [4, 5]: Clear

SMILES: C=CCCCCCCCCC=O [Aldehyde C-11 Undecylenic]
- logP (physchem): 4.072
- Water Solubility ([1]; 25° C.): 30.000 µg/mL
- Vapor Pressure [2]: 0.039 mm hg
- Flash Point [3]: 76 °C

SMILES: COc1cc(C=O)ccc1O [Vanillin]
- solubility ([1]; water, 25 °C): 6880 µg/mL (≈ 45200 µM)
- Vapor Pressure [2]: 0.002 mm hg
- Flash Point [3]: 153 °C
- Clarity 10% [4, 5]: Clear

SMILES: CC/C=C\CCO [Cis-3-Hexenol]
- logP (physchem): 1.7
- Vapor Pressure [2]: 1.039 mm hg
- Flash Point [3]: 44 °C
- Clarity 10% [4, 5]: Clear

SMILES: CC(=O)C1=C(C)C2CC3(C1)C(C)CCC3C2(C)C (stereo not drawn) [Vertofix Coeur]
- logP (physchem): 5.6
- Vapor Pressure [2]: 0.000084 mm hg
- Flash Point [3]: 100 °C
- Clarity 10% [4, 5]: Cloudy

From patent publication US20240225971A1 (Genomatica, Inc., priority 2021, published 2024)
